Measured values as given in patent US7410971B2, “1,2-di(cyclic)substituted benzene compounds” (Eisai R&D Management Co., Ltd., priority 2003, dated 2008).

Legend:
Jurkat cells = experiment: Jurkat cell adhesion system (adhesion to immobilized human fibronectin, PMA-stimulated); format: cell-based; conditions: concentration inhibiting by 50% the PMA-stimulated increase in number of adhered Jurkat cells on human fibronectin
Procedure: Evaluation of Compounds in Jurkat Cell Adhesion System
<Immobilization of Human Fibronectin in 96-Well Plate>
Human fibronectin (Becton Dickinson Biosciences) was diluted with phosphate-buffered saline (hereinafter abbreviated as PBS; Sigma) to 0.1-0.01 μg/ml, and the diluted solution was added to a 96-well plate (Becton Dickinson) at 50μ/well, and allowed to stand overnight at 4° C. On the following day, the supernatant was removed from the plate, and then PBS containing 1% bovine serum albumin (hereinafter abbreviated as BSA; Sigma) was added thereto at 100 μl/well and incubation was performed at 37° C. for 2 hours in a CO2 incubator (Hirasawa).
The supernatant was removed from each plate and Jurkat cells suspended in RPMI-1640 (Sigma) containing 1 mg/ml BSA were added at 80 μl/well for 2.5×10^5 cells/well. The compound diluted to different concentrations with RPMI-1640 containing 1 mg/ml BSA was immediately added at 10 μl/well, and then 100 nM phorbol myristate acetate (hereinafter abbreviated as PMA; Sigma) in RPMI-1640 containing 1 mg/ml BSA was added at 10 μl/well and the plate was incubated in a CO2 incubator at 37° C. for 45-60 minutes. The supernatant was removed from the plate and each well was washed several times with 100 μl/well of RPMI-1640, after which 50 mM citrate buffer (pH 5.0) containing 3.75 mM p-nitrophenol-N-acetyl-β-D-glucosaminide (Sigma) and 0.25% Triton X-100 (Sigma) were added at 60 μl/well, and the mixture was placed in a CO2 incubator and incubated at 37° C. for 45 minutes. After incubation, 50 mM glycine buffer (pH 10.4) containing 5 mM EDTA was added at 90 μl/well, and the absorbance at 405 nm was measured with an EL340 Automated Microplate Reader (BIO-TEK) to determine the adhered cell count. The concentration of each compound which inhibited the increase in the number of adhered cells by the PMA-stimulation by 50% was recorded as the IC50 (μM).

[1] = system: human peripheral blood neutrophils; experiment: Human peripheral blood neutrophil adhesion system (adhesion to immobilized HUVEC, PMA-stimulated); format: cell-based; conditions: concentration inhibiting by 50% the PMA-stimulated increase in number of adhered BCECF-AM labeled neutrophils on HUVEC immobilized plate
Procedure: Evaluation of Compounds in Human Peripheral Blood Neutrophil Adhesion System
<Preparation of Human Peripheral Blood Neutrophils>
To a plastic centrifugation tube containing 100 units of heparin sodium (Shimizu Pharmaceutical) was added 25 ml of fresh blood sampled from a healthy human. After adding and mixing therewith 8 ml of physiological saline (Otsuka Pharmaceutical) containing 6% Dextran (Nacalai), the mixture was allowed to stand room temperature for 45 minutes for sedimentation of the erythrocytes. The resultant supernatant was transferred to another plastic centrifugation tube and combined with an equivalent volume of phosphate-buffered saline (hereinafter abbreviated as PBS; Sigma), and then centrifuged at 1600 rpm for 7 minutes at room temperature. The obtained hematocyte fraction was suspended in 4 ml of PBS, and the suspension was superposed on 4 ml of Ficoll-Paque™ PLUS (Amersham Biosciences). The resultant bilayer liquid was centrifuged at 2000 rpm for 30 minutes at room temperature, after which the supernatant was removed and the precipitate was suspended in 10 ml of PBS and centrifuged at 1200 rpm for 7 minutes, and the supernatant was removed. The resulting precipitate was suspended in 0.5 ml of PBS again, and then 10 ml of distilled water (Otsuka Pharmaceutical) was added, 0.5 ml of an aqueous solution containing 3 M NaCl was immediately added to restore isotonicity, the mixture was centrifuged at 1200 rpm for 7 minutes, and the obtained precipitate was suspended in PBS containing 1 mg/ml bovine serum albumin (hereinafter abbreviated as BSA; Sigma) again and stored in ice until being used for the experiment.
<Fluorescent Labeling of Human Peripheral Blood Neutrophils>
The obtained neutrophils were suspended in PBS containing 1 mg/ml BSA at 2×10^7 cells/ml. BCECF-AM (Dojin) was added to a final concentration of 5 μM, and the mixture was incubated at 37° C. for 45 minutes. It was then rinsed twice with PBS containing 1 mg/ml BSA by centrifugation, suspended again in PBS containing 1 mg/ml BSA at 5×10^7 cells/ml, and stored in ice until use.
<Preparation of HUVEC Immobilized Plate>
Human umbilical vein endothelial cells (hereinafter abbreviated as HUVEC) were suspended in MCDB131 medium (Chlorella Industries) containing 10% fetal calf serum and 30 μg/ml endothelial cell growth supplement (Becton Dickinson Bioscience). The suspension was added at 7.5×10^3 cells/well to a 96-well plate (Iwaki) immobilized with type I collagen, and cultured for 3 days in a CO2 incubator (Hirasawa). Upon confirming confluency of the cells, the supernatant was discarded, the plate was rinsed twice with PBS, and then PBS containing 0.1% glutaraldehyde (Kanto Kagaku) was added at 100 μl/well and the HUVECs were immobilized for 5 minutes. The supernatant was discarded and the plate was washed twice with PBS, and then PBS was added at 100 μl/well and the mixture was stored at 4° C. until use.
To 6.5 ml of RPMI-1640 medium (Sigma) containing 1 mg/ml of BSA were added 0.5 ml of a suspension of BCECF-AM labeled neutrophils at 5×10^7/ml stored in ice, which was mixed, and the mixture was added at 80 μl/well to a HUVEC immobilized plate. […] The supernatant was removed from the plate, which was then washed several times with RPMI-1640 at 100 μl/well, and then PBS containing 0.1% NP-40 (Calbiochem) was added thereto at 100 μl/well and the fluorescent intensity was measured with an ARVO™SX 1420 multi label counter (Wallac) to determine the number of adhered cells. […]

[2] = system: colon-infiltrating neutrophils (myeloperoxidase enzyme activity); experiment: Oxazolone-induced colon neutrophil infiltration model; format: in vivo, Balb/c mice; conditions: Mus musculus, po, 30 mg/kg orally 30 minutes prior to intrarectal oxazolone, colon myeloperoxidase activity 4 hours after, vs oxazolone control group, read-out: Inhibitory rate (%)
Procedure: Evaluation of Compounds in Oxazolone-Induced Colon Neutrophil Infiltration Model
<Sensitization with Oxazolone>
Five- to six-week-old male Balb/c mice (Charles River Japan) were shaven at the abdomen to an approximately 2 cm square area. A 100% ethanol solution containing 3% 4-ethoxymethylene-2-phenyl-2-oxazolin-5-one (hereinafter referred to as “oxazolone”; Sigma) was applied at 150 μl onto the abdomen of each mouse.
<Preparation of Emulsion Containing Oxazolone>
Distilled water (Otsuka Pharmaceutical) was added in an equivalent volume to 100% peanut oil (Kanto Kagaku) containing 1% oxazolone, and the components were vigorously mixed with a glass syringe (Top Co.), to prepare an emulsion containing 0.5% oxazolone.
<Induction with Oxazolone>
The mice were fasted on the 3rd day after oxazolone sensitization, and were injected with 100 μl of the emulsion containing 0.5% oxazolone prepared in the way described above intrarectally at a site approximately 3 cm from the anus under ether anesthesia on the 4th day.
<Colon-Infiltrating Neutrophil Assay>
Each compound was suspended or dissolved in an aqueous solution containing 0.5% methyl cellulose (Wako), and orally administered at 30 mg/kg 30 minutes prior to the intrarectal injection of oxazolone emulsion. Four hours after the intrarectal injection of oxazolone, mice were sacrificed by cervical dislocation, and colons were extirpated, dissected in the longitudinal direction, washed with physiological saline, and transferred to ice-cooled plastic centrifugation tubes. After adding 1 ml of 50 mM potassium phosphate buffer (hereinafter abbreviated as KPB) (pH 6.0) to the tube, and the tissue were homogenized with PHYSCOTRON (Microtec Nition Co., Ltd.), 2 ml of 50 mM KPB (pH 6.0) was added and the mixture was centrifuged at 3000 rpm, 4° C. for 10 minutes and the supernatant was removed. To the resultant precipitate was added 1 ml of 50 mM KPB (pH 6.0) containing 0.5% hexadecyltrimethyl-ammonium bromide (Sigma), and freeze-thawed 3 to 5 times using liquid nitrogen and hot water, centrifuged at 3000 rpm, 4° C. for 10 minutes to yield a supernatant. The myeloperoxidase enzyme activity in the supernatant was assayed in the following manner. Specifically, to 10 μl of the obtained supernatant was added 200 μl of 50 mM KPB (pH6.0) containing 0.017% o-dianisidine (Sigma) and 0.0005% hydrogen peroxide (Wako), incubated at 37° C., and the change in absorbance at 450 nm was continuously measured for 1 minute using an EL340 Automated Microplate Reader (BIO-TEK) in kinetic mode. The units were the rate of change in absorbance per minute (mO.D./min.). With regard to the effect of each compound, the inhibitory rate (%) with respect to the oxazolone control group, i.e. the oxazolone-injected/compound-free group, was shown in the table 3.

SMILES | IC50 (Jurkat cells) | IC50 [1] | inhibition in vivo at 30 mg/kg [2]
CCCCN1CCN(c2ccccc2C2CCCCC2)CC1.Cl [Example 14, 1-Butyl-4-(2-cyclohexylphenyl)piperazine hydrochloride] | 4.9 µM | 19.7 µM | 64%
CCCCN1CCN(c2ccccc2C2CC(C)(C)CC(C)(C)C2)CC1.Cl [Example 8, 1-Butyl-4-[2-(3,3,5,5-tetramethylcyclohexyl)phenyl]piperazine hydrochloride] | 2.2 µM | 22.5 µM | 22%
CCCCN1CCN(c2ccc(N3CCC(OC)CC3)cc2C2=CCC(C(C)(C)C)CC2)CC1.Cl (racemic) [Example 7, 1-Butyl-4-[2-(4-t-butylcyclohex-1-enyl)-4-(4-methoxypiperidin-1-yl)phenyl]piperazine hydrochloride] | 2.5 µM | 9.8 µM | 37%
